Measurements published in patent US20050181509A1 (priority 2004, published 2005).

Tests used:
[1] = test system: F. oxysporum transformants generated using pBHt2-tk (ChGPD-HSVtk); format: cell-based, Fusarium oxysporum
[2] = test system: Aspergillus fumigatus transformants generated using pBHt2-tk (ChGPD-HSVtk); format: cell-based
[3] = test system: Botrytis cineria transformants generated using pBHt2-tk (ChGPD-HSVtk); format: cell-based
[4] = test system: transformants of N. crassa that express HSVtk; conditions: HSVtk-expressing transformants; cited from earlier work
[5] = test system: wild-type strain of B. cineria; format: cell-based, Botrytis cineria
[6] = test system: transformants of Cryptococcus neoformans that express HSVtk; conditions: HSVtk-expressing transformants; cited from earlier work
[7] = test system: F. oxysporum O-685 transformants; format: cell-based, Fusarium oxysporum

Compound | sensitivity of transformants [1] | sensitivity of transformants [2] | concentration failing to inhibit growth [3] [mM] | sensitivity of transformants [4] | sensitivity of wild-type strain [5] | sensitivity of transformants [6] | concentration required for significant growth inhibition [2] [µM] | reduction of the number of transformants relative to that generated in the presence of 0 or 5 μM F2dU [7] [fold] | concentration sufficient to inhibit growth [3] [nM] | sensitivity of transformants [3]
Nc1nc(O)c2ncn(COC(CO)CO)c2n1 [Ganciclovir] | exhibited sensitivity | exhibited sensitivity | > 2 |  |  |  |  |  |  | 
O=c1[nH]c(=O)n([C@H]2C[C@H](O)[C@@H](CO)O2)cc1F [F2dU, 5-fluoro-2′-deoxyuridine] | exhibited sensitivity | exhibited sensitivity |  | exhibited sensitivity | exhibited noticeable sensitivity | exhibited sensitivity | 50 | 2 to 4 | 5 | exhibited sensitivity
